One data set concerns MOLM-13-RES cells. Nature of the data set: MTS cell viability assay, MOLM-13-RES. It counts as cell-based, human. The following applies: ratio of in vitro viability potency, MOLM-13-RES vs MOLM-13.
The conditions of data set [1]: single-agent phase I-II clinical trial in AML; cited from earlier work.
Another data set in a line: in vivo. The note with it: female, athymic CrTac:NCr-Fox1(nu), mouse, po, 160 mg/kg. Also noted: species or system mice.
For data set [2] the following is noted: in mice; cited from earlier work.

As to `CC(C)(C)c1cc(NC(=O)Nc2ccc(-c3cn4c(n3)sc3cc(OCCN5CCOCC5)ccc34)cc2)no1` [AC220], the “relative resistance of MOLM-13-RES compared with parental MOLM-13 cells” value with MOLM-13-RES cells is listed as “approximately 23 fold”.
Consider `CCN(CCCOc1ccc2c(Nc3cc(CC(=O)Nc4cccc(F)c4)n[nH]3)ncnc2c1)CCOP(=O)(O)O` [AZD1152], for which the response rate in data set [1] was 25%.
In “in vivo”, `COc1cc2c(N3CCN(C(=O)Nc4ccc(OC(C)C)cc4)CC3)ncnc2cc1OCCCN1CCCCC1` [MLN518] returned a concentration at 1 h after the last dose of roughly 200 nM and a concentration at 6 h after the last dose of roughly 40 nM. Moreover, the plasma protein binding in data set [2] was 80%.
Take `COc1cc(Nc2ncc3c(n2)-c2ccc(Cl)cc2C(c2c(F)cccc2OC)=NC3)ccc1C(=O)O` [MLN8237]: the response rate in data set [1] is 17%.
As to `CNC(=O)c1cc(Oc2ccc(NC(=O)Nc3ccc(Cl)c(C(F)(F)F)c3)cc2)ccn1` [Sorafenib], the “relative resistance of MOLM-13-RES compared with parental MOLM-13 cells” value with MOLM-13-RES cells is “approximately 60 fold”.

The values are drawn from paper PMC3523391 (Leukemia, 2012).
